Results taken from publication PMC8424217 (The Journal of Biological Chemistry, 2021).
Peptide text beside a SMILES is read from it. * marks the point of attachment. Palmitoyl = CCCCCCCCCCCCCCCC(=O)*

Legend:
[1] = target: T1, hUT (Homo sapiens, UniProt Q9UKP6); test: ERK1/2 phosphorylation, western blot, CHO-hUT cells; format: cell-based; design: expressed in transfected cells; host or cells: CHO-K1 cells stably expressing hUT (gift from H. Vaudry and C. Dubessy, University of Rouen); details: for EC50 / effect of AG1478 (EGFR inhibitor) on ERK1/2 phosphorylation induced by the peptide / effect of PTX on ERK1/2 phosphorylation induced by the peptide / effect of U73122 (PLC inhibitor) on ERK1/2 phosphorylation induced by the peptide / time of second peak of ERK1/2 phosphorylation / time of maximal ERK1/2 phosphorylation: CHO-hUT; for EC50: 5 min stimulation, mean ± SEM of at least three independent experiments in triplicate, read-out: ERK1/2 phosphorylation pEC50 (converted); for effect of AG1478 (EGFR inhibitor) on ERK1/2 phosphorylation induced by the peptide: AG1478 5 μM 30 min pretreatment; for effect of AG1478 (EGFR inhibitor) on ERK1/2 phosphorylation induced by the peptide / effect of PTX on ERK1/2 phosphorylation induced by the peptide / effect of U73122 (PLC inhibitor) on ERK1/2 phosphorylation induced by the peptide: pepducin 10^−6 M, 5 min, n = 3; for effect of PTX on ERK1/2 phosphorylation induced by the peptide: PTX 200 ng/ml 24 h pretreatment; for effect of U73122 (PLC inhibitor) on ERK1/2 phosphorylation induced by the peptide: U73122 1 μM 60 min pretreatment; for time of second peak of ERK1/2 phosphorylation / time of maximal ERK1/2 phosphorylation: pepducins 10^−6 M; for time of maximal ERK1/2 phosphorylation: hUII 10^−7 M
T1 sequence (Q9UKP6 1-389): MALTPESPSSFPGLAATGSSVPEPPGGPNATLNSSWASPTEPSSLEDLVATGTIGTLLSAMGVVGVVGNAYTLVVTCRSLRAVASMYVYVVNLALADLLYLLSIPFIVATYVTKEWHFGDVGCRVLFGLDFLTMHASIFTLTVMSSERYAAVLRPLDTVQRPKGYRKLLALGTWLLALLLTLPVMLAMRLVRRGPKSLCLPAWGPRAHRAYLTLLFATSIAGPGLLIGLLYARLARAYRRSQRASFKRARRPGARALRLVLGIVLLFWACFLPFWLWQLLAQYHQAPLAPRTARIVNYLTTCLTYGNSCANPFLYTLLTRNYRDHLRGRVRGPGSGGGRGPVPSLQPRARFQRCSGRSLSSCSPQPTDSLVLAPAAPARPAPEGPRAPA
Method: Figure 3 IP1production (A and B) and ERK1/2phosphorylation (C and D) kinetics and concentration dependence following hUT activation. IP1 production was evaluated using the IP-One terbium immunoassay kits while ERK1/2 phosphorylation was measured by western blot in CHO-K1 cells stably expressing hUT. […] Each curve represents the mean ± SEM of at least three independent experiments performed in triplicate.
ERK1/2 phosphorylation was measured by western blot. […] Quantification of ERK1/2 phosphorylation level was performed in three independent experiments done in triplicate (mean ± SEM, n = 3, ∗∗∗p < 0.001, ∗∗p < 0.01, or ∗p < 0.05, versus control).
(§1) CHO cells stably expressing hUT (CHO-hUT; gift from Drs H. Vaudry et C. Dubessy, University of Rouen, France) were grown in 12-well plates to 70–80% confluence and starved for 6 h in a serum-free medium. […] Briefly, HEK 293-hUT cells, grown in 12-well plates to 70–80% confluence, were starved for 6 h in a serum-free medium. […] Cells were then rinsed twice with ice-cold PBS and homogenized in 0.5 ml of lysis buffer (20 mM Tris, 150 mM NaCl, 1 mM EDTA, 1 mM EGTA, 1% Triton X-100, 2.5 mM sodium pyrophosphate, 1 mM β-glycerolphosphate, 1 mM Na3VO4, 1 μg mL^−1 leupeptin, 1 mM PMSF, 1 mM DTT) at 4 °C. Insoluble material was removed by centrifugation at 12,000 rpm for 30 min. The extract was treated with Laemmli sample buffer and heated for 5 min at 95 °C. Aliquots were assayed for protein concentration (BioRad) and an equal amount of total protein was subjected to 12% SDS–PAGE, followed by transfer to a nitrocellulose membrane. The membrane was blocked and then probed with primary antibody (phospho-p44/42 MAPK) at the optimal dilution (1/2000) with gentle agitation overnight at 4 °C. After washing with TTBS, membranes were then incubated with secondary antibody, conjugated with horseradish peroxidase (anti-rabbit HRP) diluted in TBST containing 5% skim milk (w/v) for 1 h at room temperature. Immunoreactive species were visualized by enhanced chemiluminescence using X-ray film and Thermo Scientific SuperSignal chemiluminescent substrates according to the manufacturer's instructions. Films were digitized and the intensity of the immunoreactive bands determined using Quantity One software from Bio-Rad.

[2] = target: T1, hUT; test: ERK1/2 phosphorylation, western blot, HEK 293-hUT cells; format: cell-based; design: expressed in transfected cells; host or cells: CHO-K1 cells stably expressing hUT (gift from H. Vaudry and C. Dubessy, University of Rouen); details: for effect of YM254890 (Gq inhibitor) on ERK1/2 phosphorylation induced by the peptide: YM254890 100 nM 1 h pretreatment, hUT-Pep2 at 5 min, [Trp^1, Leu^2]hUT-Pep3 at 5 and 10 min, p < 0.05; for effect of YM254890 (Gq inhibitor) on ERK1/2 phosphorylation induced by the peptide / time of maximal ERK1/2 phosphorylation (for [Trp^1, Leu^2]hUT-Pep3: time to reach efficacy similar to hUII): pepducins 10^−5 M; for time of maximal ERK1/2 phosphorylation (for [Trp^1, Leu^2]hUT-Pep3: time to reach efficacy similar to hUII): hUII 10^−7 M
Method: Curves represent mean ± SEM of three independent kinetic experiments performed in triplicate.
as §1

[3] = test system: CHO-K1 cells; test: ERK1/2 phosphorylation, western blot, CHO-K1 cells not expressing hUT; format: cell-based; details: CHO-K1, 5 min; hUII 10^−7 M, pepducins 10^−5 M; n = 3
[4] = target: T2, rat thoracic aorta rings (Rattus norvegicus, UniProt P49684); test: Rat aortic ring contraction (agonist); details: for contraction at 10 μM: n = 5; for contraction pEC50: n = 22 (hUII, URP), n = 5 (pepducins)
T2 sequence (P49684 1-386): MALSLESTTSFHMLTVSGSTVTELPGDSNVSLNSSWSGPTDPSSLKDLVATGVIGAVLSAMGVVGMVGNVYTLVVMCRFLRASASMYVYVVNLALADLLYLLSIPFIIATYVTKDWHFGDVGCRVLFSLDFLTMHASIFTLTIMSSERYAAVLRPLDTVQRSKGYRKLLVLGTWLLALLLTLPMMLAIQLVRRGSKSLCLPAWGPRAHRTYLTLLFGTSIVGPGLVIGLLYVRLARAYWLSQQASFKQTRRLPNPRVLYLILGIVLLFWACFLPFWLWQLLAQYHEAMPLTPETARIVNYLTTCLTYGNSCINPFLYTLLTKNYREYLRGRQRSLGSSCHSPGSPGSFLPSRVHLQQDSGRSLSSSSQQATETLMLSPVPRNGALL
Method: Each replicate (n) was conducted on tissue obtained from at least three different animals. Data represent mean ± SEM.
Adult male Sprague-Dawley rats (Charles-River) weighing 250–300 g were housed in cages under controlled illumination (12:12 h light–dark cycle), humidity, and temperature (21–23 °C) and had free access to tap water and rat chow. All experimental procedures were performed in accordance with regulations and ethical guidelines from the Canadian Council for the Care of Laboratory Animals and received approvals of the institutional animal care and use committee of the Institut National de la Recherche Scientifique—Centre Armand-Frappier Santé Biotechnologie. As previously described ([17], [18]), the thoracic aorta was cleared of surrounding tissue and then excised from the aortic arch to the diaphragm. Conjunctive tissues were next removed from the thoracic aorta and the vessels were divided into five rings of 4 mm. The endothelium of each aortic ring was removed by gently rubbing the vessel intimal surface. Aortic rings were then placed in a 5 ml organ bath filled with oxygenated normal Krebs–Henseleit buffer. Eighty microliters of a 2.5 M potassium chloride solution (40 mM final concentration) was used to evaluate maximal contractile responses of each vessel. […] Cumulative concentration–response curves to synthetic peptides were obtained by increasing the concentration of each peptide in the remaining organ chambers (10^−11–10^−5 M).

[5] = percentage of contraction induced by 40 mM KCl

Which results are given for `CCCCCCCCCCCCCCCC(=O)N[C@@H](Cc1c[nH]c2ccccc12)C(=O)N[C@@H](CC(C)C)C(=O)N[C@@H](CO)C(=O)N[C@@H](CCC(N)=O)C(=O)N[C@@H](CCCNC(=N)N)C(=O)N[C@@H](C)C(=O)N[C@@H](CO)C(=O)N[C@@H](Cc1ccccc1)C(=O)N[C@@H](CCCCN)C(=O)N[C@@H](CCCNC(=N)N)C(=O)N[C@@H](C)C(=O)N[C@@H](CCCNC(=N)N)C(=O)N[C@@H](CCCNC(=N)N)C(N)=O` [[Trp^1, Leu^2]hUT-Pep3] (Palmitoyl-WLSQRASFKRARR-NH2)?
Emax [1]: 56 ± 2%; EC50 [1]: 200 nM; effect of AG1478 (EGFR inhibitor) on ERK1/2 phosphorylation induced by the peptide [1]: significantly reduced the ability of both hUT-derived pepducins to induce ERK1/2 phosphorylation; effect of PTX on ERK1/2 phosphorylation induced by the peptide [1]: completely prevented; effect of U73122 (PLC inhibitor) on ERK1/2 phosphorylation induced by the peptide [1]: completely prevented; time of second peak of ERK1/2 phosphorylation [1]: 60 min; time of maximal ERK1/2 phosphorylation [1]: 5 min; effect of YM254890 (Gq inhibitor) on ERK1/2 phosphorylation induced by the peptide [2]: modest, but significant, inhibitory effect; duration of ERK1/2 activation in presence of YM254890 ([2]; YM254890 100 nM, 0-20 min): this activation is maintained and did not decrease over the studied period of time; time of maximal ERK1/2 phosphorylation (for [Trp^1, Leu^2]hUT-Pep3: time to reach efficacy similar to hUII) [2]: 10 min; ERK1/2 phosphorylation in absence of receptor [3]: neither hUII nor hUT-derived pepducins were able to induce ERK1/2 phosphorylation; contraction at 10 μM [4, 5]: 16% @ 10 μM; contraction pEC50 ([4]; mean ± SEM): <5

With `CC(C)[C@H](NC(=O)[C@@H]1CSSC[C@H](NC(=O)[C@H](CC(=O)O)NC(=O)[C@@H]2CCCN2C(=O)[C@@H](NC(=O)[C@@H](N)CCC(=O)O)[C@@H](C)O)C(=O)N[C@@H](Cc2ccccc2)C(=O)N[C@@H](Cc2c[nH]c3ccccc23)C(=O)N[C@@H](CCCCN)C(=O)N[C@@H](Cc2ccc(O)cc2)C(=O)N1)C(=O)O` [hUII, urotensin II, reference compound] as the compound, how does the Emax [1] read?
Its Emax is 102 ± 2%.

And the “effect of PTX on ERK1/2 phosphorylation induced by the peptide” value [1]?
Its value is “substantially reduced, or even suppressed”.

And the “time of maximal ERK1/2 phosphorylation” value [1]?
The value was 5 min.

And the “time of maximal ERK1/2 phosphorylation (for [Trp^1, Leu^2]hUT-Pep3: time to reach efficacy similar to hUII)” value [2]?
Its value is 5 min.

What about the “ERK1/2 phosphorylation in absence of receptor” value [3] of the same compound?
Its value is “neither hUII nor hUT-derived pepducins were able to induce ERK1/2 phosphorylation”.

What about the “contraction pEC50” value ([4]; mean ± SEM) of the same compound?
Its value is 8.64 ± 0.09.

And the Emax ([4]; percentage of contraction induced by 40 mM KCl, mean ± SEM, n = 22)?
Its Emax is 102 ± 3%.

For `CCCCCCCCCCCCCCCC(=O)N[C@@H](CCCNC(=N)N)C(=O)N1CCC[C@H]1C(=O)N[C@@H](CC(C)C)C(=O)N[C@@H](CC(=O)O)C(=O)N[C@H](C(=O)N[C@H](C(=O)N[C@@H](CCC(N)=O)C(=O)N[C@@H](CCCNC(=N)N)C(=O)N1CCC[C@H]1C(=O)N[C@@H](CCCCN)C(=O)NCC(=O)N[C@@H](Cc1ccc(O)cc1)C(N)=O)C(C)C)[C@@H](C)O` [hUT-Pep2] (Palmitoyl-RPLDTVQRPKGY-NH2), which Emax [1] is on record?
Its Emax is 34 ± 2%.

What about the EC50 [1] of the same compound?
Its EC50 is 55 nM.

And the “effect of AG1478 (EGFR inhibitor) on ERK1/2 phosphorylation induced by the peptide” value [1]?
The value was “significantly reduced the ability of both hUT-derived pepducins to induce ERK1/2 phosphorylation”.

And the “effect of PTX on ERK1/2 phosphorylation induced by the peptide” value [1]?
The value was “unaffected by PTX treatment”.

What about the “effect of U73122 (PLC inhibitor) on ERK1/2 phosphorylation induced by the peptide” value [1] of the same compound?
The value was “only partially affected by the PLC inhibitor”.

And the “time of second peak of ERK1/2 phosphorylation” value [1]?
Its value is “a similar pattern was not observed for hUT-Pep2”.

What about the “time of maximal ERK1/2 phosphorylation” value [1] of the same compound?
Its value is 5 min.

What about the “effect of YM254890 (Gq inhibitor) on ERK1/2 phosphorylation induced by the peptide” value [2] of the same compound?
Its value is “modest, but significant, inhibitory effect”.

What about the “time of maximal ERK1/2 phosphorylation (for [Trp^1, Leu^2]hUT-Pep3: time to reach efficacy similar to hUII)” value [2] of the same compound?
The value was 5 min.

What about the “ERK1/2 phosphorylation in absence of receptor” value [3] of the same compound?
The value was “neither hUII nor hUT-derived pepducins were able to induce ERK1/2 phosphorylation”.

What about the “contraction at 10 μM” value [4, 5] of the same compound?
Its value is 7% @ 10 μM.

What about the “contraction pEC50” value ([4]; mean ± SEM) of the same compound?
Its value is less than 5.
